Here are results for one compound from patent publication US10980727B2, “Mixtures containing (E)-3-benzo[1,3]dioxol-5-yl-N,N-diphenyl-2-propenamide” (SYMRISE AG, priority 2016, dated 2021).

Assay type in all cases: physicochemical
Series [1] in a line: Solubility of BDDPA in different solvents at room temperature. As to the method: The solubility of (E)-3-benzo[1,3]dioxol-5-yl-N,N-diphenyl-2-propenamide (BDDPA) in different solvents was tested.
(§1) The amount of solvent added to the amount of (E)-3-benzo[1,3]dioxol-5-yl-N,N-diphenyl-2-propenamide is added up to 100 wt.-% in each mixture (1 to 18). Thus the composition of mixture 1 is 99 wt.-% ethanol, 1 wt.-% BDDPA.

Series [2] can be described thus: Stability of the mixtures on storage at 5° C. As to conditions: mixtures of table 2. As to the method:
Several of the mixtures of example 1 were stored at night at 5 C to observe the stability.
as §1

The nature of series [3]: Solubility of BDDPA in binary and ternary solvent systems at 23° C. and 90° C. As to the method:
The solubility of (E)-3-benzo[1,3]dioxol-5-yl-N,N-diphenyl-2-propenamide (BDDPA) in different solvent combinations was tested.
The amount of solvents 1 to 3 add up to 100 wt.-% with the amount of (E)-3-benzo[1,3]dioxol-5-yl-N,N-diphenyl-2-propenamide. Thus the composition of mixture 19 is 5 wt.-% BDDPA, 47.5 wt.-% triacetin and 47.5 wt.-% peppermint oil.

Consider `O=C(/C=C/c1ccc2c(c1)OCO2)N(c1ccccc1)c1ccccc1` [BDDPA, (E)-3-benzo[1,3]dioxol-5-yl-N,N-diphenyl-2-propenamide], for which the “BDDPA dissolved in the respective solvents at room temperature” value in series [1] (23° C., solvents of table 1) is “completely dissolved”. For the same compound, in series [1] (where necessary by means of ultrasonification), the “Temperature at which BDDPA dissolves in the solvents of table 1” value is not above 65 °C. In addition, in series [2], the “Recrystallization on storage over night below room temperature” value was “no recrystallization occurs”. The “BDDPA dissolved in binary and ternary solvent combinations at room temperature” value in series [3] (23° C.) was “completely dissolved”. The “BDDPA dissolved in binary and ternary solvent combinations at high temperature” value in series [3] (90° C.) was “remains stably dissolved”.
